Measured values published in patent US20080026065A1, “Powdered Compositions Of Sensitive Active Materials In An At Least Partially Amorphous State” (priority 2004, published 2008).

Experiment: Moisture uptake at 75% relative humidity, gravimetric
Format: physicochemical
Conditions: freeze dried matrices, 75% RH atmosphere, 8 hours; for moisture uptake (percentage weight increase): FIG. 1
Experimental: Following lyophilisation the resultant freeze dried matrices were exposed to a 75% RH (Relative Humidity) atmosphere for a period of 8 hours. At intervals over this period, moisture uptake of each sample was measured gravimetrically and calculated as a percentage weight increase of the sample.

SMILES	moisture uptake (percentage weight increase)	physical quality of sample after moisture exposure
OC[C@@H](O)[C@@H](O)[C@H](O)[C@H](O)CO [mannitol]	no appreciable moisture uptake	
OC[C@H]1O[C@H](O[C@H]2O[C@H](CO)[C@@H](O)[C@H](O)[C@H]2O)[C@H](O)[C@@H](O)[C@@H]1O [trehalose]	significant moisture uptake	deterioration in the physical quality
